Results taken from PubChem BioAssay AID2202554 (NIEHS Division of Translational Toxicology (DTT)).
Inconclusive results are not listed. Calls of active or inactive are those of the source. The rule behind the calls is not given here.

Tested on: S. typhimurium/E. coli reverse mutation, colony counts
Assay: Bacterial reverse mutation test (aka Ames test) summary data
Method in brief: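 S. typhimurium his⁻ strains (TA97–TA1538) and E. coli WP2 uvrA pKM101 trp⁻, dosed over a range with or without rat, hamster or mouse liver S9. Preincubated 20 min at 37° C (or plate incorporation), plated in agar, incubated usually two days. Revertant colonies counted against negative controls.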

SMILES	outcome
Nc1ccc(Br)cc1	inactive; negative
CC/C=C\C/C=C\C/C=C\CCCCCCCC(=O)O	active; weakly positive
CC1=CC(=C(c2ccc(N)cc2)c2ccc(N)cc2)C=CC1=N	active; positive
CC(C)(C)OO	active; positive
Nc1ccc(-c2ccc(N)cc2S(=O)(=O)O)c(S(=O)(=O)O)c1	inactive; negative
CC(C)(C)N	inactive; negative
ClC=C(Cl)Cl	inactive; negative
Cl	inactive; negative
Cc1cccc(C)c1N	active; weakly positive
CNc1ccc(N(CCO)CCO)cc1[N+](=O)[O-]	active; positive
CC(C=O)=Cc1ccccc1	inactive; negative
Nc1ccc(N)c2c1C(=O)c1c(N)ccc(N)c1C2=O	active; positive
CC(C)(c1cc(Br)c(O)c(Br)c1)c1cc(Br)c(O)c(Br)c1	inactive; negative
O=[N+]([O-])c1cc([N+](=O)[O-])c2ccccc2c1	active; positive
N#CCc1ccccc1	inactive; negative
O=Cc1cccc(Br)c1	inactive; negative
CCc1cccc(C)c1N(C(=O)CCl)C(C)COC (stereo not drawn)	inactive; negative
CC(C)CN	inactive; negative
COCCOCCOCCOC	active; positive
C=CC(=O)NCO	inactive; negative
O=[N+]([O-])C(Br)=Cc1ccccc1	active; positive
CCN(CC)c1ccc(N)cc1	active; positive
CCN(CC)c1ccc(C(=C2C=CC(=[N+](CC)CC)C=C2)c2ccc(S(=O)(=O)O)cc2S(=O)(=O)[O-])cc1	active; positive

SMILES	outcome
[O]=[Zr]	inactive; negative
O=C1OC(=O)c2c(Cl)c(Cl)c(Cl)c(Cl)c21	inactive; negative
CC(=O)C=Cc1ccc2c(c1)OCO2	inactive; negative
C[Si]12OCCN(CCO1)CCO2	inactive; negative
O=C=Nc1ccc(N=C=O)cc1	inactive; negative
O=C(O)c1cc(Cl)ccc1Cl	inactive; negative
CC(=O)/C=C/c1ccccc1	active; positive
NCCNCCNCCNCCN	active; positive
COc1cc(Cc2cnc(N)nc2N)cc(OC)c1OC	inactive; negative
Cc1ccc2c(c1N)C(=O)c1ccccc1C2=O	active; positive
CCCCOC(C)=O	inactive; negative
C[C@H](CCC(=O)O)[C@H]1CC[C@H]2[C@@H]3CC[C@@H]4C[C@H](O)CC[C@]4(C)[C@H]3CC[C@]12C	inactive; negative
CCOc1cccc(N)c1	active; weakly positive
CCNC(=S)NCC	inactive; negative
Cc1c(N(C)C)c(=O)n(-c2ccccc2)n1C	active; weakly positive
Cc1cc(-c2cc(C)c(N)c(C)c2)cc(C)c1N	inactive; negative
O=C1CSC(=S)N1	inactive; negative
COP(=O)(O)O	inactive; negative
O=S(=O)(O)C(F)(F)C(F)(F)C(F)(F)C(F)(F)C(F)(F)C(F)(F)C(F)(F)C(F)(F)F	inactive; negative
CCOCCO	inactive; negative
CC(C)OC(=O)Cc1ccccc1	inactive; negative
COC(=O)c1ccccc1N	inactive; negative
COc1cc2c(cc1OC)[C@@]13CCN4CC5=CCO[C@H]6CC(=O)N2[C@H]1[C@H]6[C@H]5C[C@H]43	inactive; negative

SMILES	outcome
Cc1ccc(C(=O)O)cc1[N+](=O)[O-]	active; positive
Cc1ccc(N(C)C)cc1	inactive; negative
CCCCC	inactive; negative
Cc1ccccc1O	inactive; negative
COCC1CCC(CO)CC1 (stereo not drawn)	inactive; negative
Oc1ccc2c(c1)OCO2	inactive; negative
COC(=O)C1CCC(C)CC1 (stereo not drawn)	inactive; negative
CCOc1ccc2nc(N)sc2c1	active; positive
CCOc1ccc(NC(C)=O)cc1N	active; positive
CCCC=C(C=O)CC	inactive; negative
Cc1ccc2cc3c(ccc4ccccc43)c3c2c1CC3	active; positive
OCC#CCO	inactive; negative
C=CCc1ccc(OC)cc1	inactive; negative
F	inactive; negative
O=[N+]([O-])c1ccc(CCO)cc1	active; positive
NC(=O)c1cccc([N+](=O)[O-])c1	active; positive
N=C1N=C(N)c2ccccc21	active; positive
O=C(O)c1ccc(C(=O)O)cc1	inactive; negative
CCCNCCC	inactive; negative
O=C1C2CC=CCC2C(=O)N1SC(Cl)(Cl)Cl (stereo not drawn)	active; positive
CCCCCCCCCCCCCCCCCCN	inactive; negative
CC(C)Cc1nccs1	active; positive
